The values below come from patent US12600709B2, “Nonpeptide somatostatin type 5 receptor agonists and uses thereof” (Crinetics Pharmaceuticals, Inc., priority 2019, dated 2026).

Each structure is given as a SMILES string. Read-outs that look alike come from different tables or passages of the source. A value given as a limit tells only on which side of the number the result lay.

Assay [1] has as its target T1, human somatostatin receptor subtype 5 (Homo sapiens, UniProt P35346).
T1 construct: expressed in transfected cells
The experiment in a line: cAMP assay for SST5R (inhibition of cAMP in CHO-K1 cells). In kind it is cell-based. The note with it: for EC50: inhibition of cAMP via human SST5 receptor, read-out: SST5 potency; for Fold selectivity for SST5 vs SST2: class symbols, SST5 receptor over SST2 receptor. A digest of the protocol: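 CHO-K1 cells stably expressing human SSTR5 were treated 20 min at 37 °C with compounds plus 1.6 μM NKH477 in HBSS, 0.5 mM HEPES pH 7.4, 0.1% BSA, 0.2 mM IBMX. Lysate cAMP measured by HTRF against a standard curve; EC50 from cAMP-versus-concentration plots.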

Assay [2] deals with T2, human somatostatin receptor subtype 2 (Homo sapiens, UniProt P30874).
T2 construct: expressed in transfected cells
T2 sequence (P30874 whole entry): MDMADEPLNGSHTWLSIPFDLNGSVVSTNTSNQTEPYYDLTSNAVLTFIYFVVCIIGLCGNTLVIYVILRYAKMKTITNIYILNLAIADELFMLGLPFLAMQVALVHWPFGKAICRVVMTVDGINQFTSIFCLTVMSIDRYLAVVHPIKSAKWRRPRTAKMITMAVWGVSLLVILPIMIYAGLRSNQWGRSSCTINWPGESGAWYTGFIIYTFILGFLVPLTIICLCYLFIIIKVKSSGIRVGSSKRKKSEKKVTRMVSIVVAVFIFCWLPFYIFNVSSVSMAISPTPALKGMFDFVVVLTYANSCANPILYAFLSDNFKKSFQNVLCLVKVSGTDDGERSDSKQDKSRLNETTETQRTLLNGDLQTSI
The experiment in a line: cAMP assay for SST2R (inhibition of cAMP in CHO-K1 cells). Type of assay: cell-based. Conditions: Table B; inhibition of cAMP via human SST2 receptor; read-out: SST2 potency. A digest of the protocol:
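Agonism read as decrease in NKH477 (1.6 μM)-stimulated cAMP: compounds applied 20 min, 37° C, with 0.2 mM IBMX, to CHO-K1 stably expressing human SSTR2. cAMP quantified in lysates by time-resolved fluorescence (HTRF kit, 1-24 h RT), standard-curve regression, then EC50.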

T1 sequence (P35346 whole entry): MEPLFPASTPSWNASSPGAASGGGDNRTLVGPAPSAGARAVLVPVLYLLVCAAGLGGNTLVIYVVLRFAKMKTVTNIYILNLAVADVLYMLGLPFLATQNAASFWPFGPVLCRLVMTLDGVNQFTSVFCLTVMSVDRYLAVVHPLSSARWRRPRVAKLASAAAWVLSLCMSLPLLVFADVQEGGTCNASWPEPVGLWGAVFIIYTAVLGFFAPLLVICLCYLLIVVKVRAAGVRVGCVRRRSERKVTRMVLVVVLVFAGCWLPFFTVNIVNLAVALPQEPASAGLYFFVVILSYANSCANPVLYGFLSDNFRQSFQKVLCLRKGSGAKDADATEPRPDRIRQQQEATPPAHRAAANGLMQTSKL

With `C[C@H](NC(=O)c1cnc(C(F)(F)F)c(-c2cc(F)cc(F)c2)c1N1CC[C@H](N)C1)C1CC1` [1-199, 4-[(3S)-3-aminopyrrolidin-1-yl]-N-[(1S)-1-cyclopropylethyl]-5-(3,5-difluorophenyl)-6-(trifluoromethyl)pyridine-3-carboxamide], the EC50 was less than 10 nM in assay [1] (Table A), less than 10 nM in assay [1] (Table B) and 100 to 1000 nM in assay [2]. Further, in assay [1] (Table B), the “Fold selectivity for SST5 vs SST2” value was “+++ (+++=>500)”.

Turning to `Cn1nccc1CNC(=O)c1cnc(C#N)c(-c2cc(F)cc(F)c2)c1N1CC[C@](C)(N)C1` [1-104, 4-[(3S)-3-amino-3-methylpyrrolidin-1-yl]-6-cyano-5-(3,5-difluorophenyl)-N-[(1-methyl-1H-pyrazol-5-yl)methyl]pyridine-3-carboxamide], the EC50 in assay [1] (Table A) is less than 10 nM; in assay [1] (Table B), less than 10 nM; in assay [2], more than 1000 nM. In addition, the “Fold selectivity for SST5 vs SST2” value in assay [1] (Table B) is recorded as “+++ (+++=>500)”.

Turning to `C[C@]1(N)CCN(c2c(C(=O)NCc3ccccc3O)cnc(C#N)c2-c2cc(F)cc(F)c2)C1` [1-115, 4-[(3S)-3-amino-3-methylpyrrolidin-1-yl]-6-cyano-5-(3,5-difluorophenyl)-N-[(2-hydroxyphenyl)methyl]pyridine-3-carboxamide], the EC50 is less than 10 nM in assay [1] (Table A), less than 10 nM in assay [1] (Table B) and more than 1000 nM in assay [2]. Moreover, the “Fold selectivity for SST5 vs SST2” value in assay [1] (Table B) is recorded as “+++ (+++=>500)”.

`C[C@]1(N)CCN(c2c(C(=O)NC3CCCC3)cnc(C#N)c2-c2cc(F)cc(F)c2)C1` [1-78, 4-[(3S)-3-amino-3-methylpyrrolidin-1-yl]-6-cyano-N-cyclopentyl-5-(3,5-difluorophenyl)pyridine-3-carboxamide]: the EC50 in assay [1] (Table A) is less than 10 nM; in assay [1] (Table B), less than 10 nM; in assay [2] it was 10 to 100 nM. In addition, in assay [1] (Table B), the “Fold selectivity for SST5 vs SST2” value is reported as “+++ (+++=>500)”.

Turning to `C[C@H](NC(=O)c1cnc(C(F)(F)F)c(-c2cc(F)cc(Cl)c2)c1N1CC[C@](C)(N)C1)C1CC1` [1-195, 4-[(3S)-3-amino-3-methylpyrrolidin-1-yl]-5-(3-chloro-5-fluorophenyl)-N-[(1S)-1-cyclopropylethyl]-6-(trifluoromethyl)pyridine-3-carboxamide], the values for the EC50 in assay [1] (Table A), in assay [1] (Table B) and in assay [2] were less than 10 nM, less than 10 nM and 10 to 100 nM, respectively. Also, in assay [1] (Table B), the “Fold selectivity for SST5 vs SST2” value was “++ (++=100 to 499)”.

Regarding `N[C@H]1CCN(c2c(C(=O)NC(C3CC3)C3CC3)cncc2-c2cc(F)cc(Cl)c2)C1` [1-61, 4-[(3S)-3-aminopyrrolidin-1-yl]-5-(3-chloro-5-fluorophenyl)-N-(dicyclopropylmethyl)pyridine-3-carboxamide], the EC50 in assay [1] (Table A) was less than 10 nM; in assay [1] (Table B), less than 10 nM; in assay [2], more than 1000 nM. Besides, the “Fold selectivity for SST5 vs SST2” value in assay [1] (Table B) was “+++ (+++=>500)”.

In the case of `COc1cc(C#N)cc(-c2cncc(C(=O)NC34CC(C3)C4)c2N2CC[C@](C)(N)C2)c1` [1-94, 4-[(3S)-3-amino-3-methylpyrrolidin-1-yl]-N-{bicyclo[1.1.1]pentan-1-yl}-5-(3-cyano-5-methoxyphenyl)pyridine-3-carboxamide], the EC50 in assay [1] (Table A) was less than 10 nM; in assay [1] (Table B) it was less than 10 nM; in assay [2], 100 to 1000 nM. Moreover, the “Fold selectivity for SST5 vs SST2” value in assay [1] (Table B) was “++ (++=100 to 499)”.

As for `COc1ncc(C(=O)N[C@@H](C)C(F)(F)F)c(N2CC[C@](C)(N)C2)c1-c1ccc2nonc2c1` [1-186, 4-[(3S)-3-amino-3-methylpyrrolidin-1-yl]-5-(2,1,3-benzoxadiazol-5-yl)-6-methoxy-N-[(2S)-1,1,1-trifluoropropan-2-yl]pyridine-3-carboxamide], the EC50 was less than 10 nM in assay [1] (Table A), less than 10 nM in assay [1] (Table B) and 100 to 1000 nM in assay [2]. Besides, the “Fold selectivity for SST5 vs SST2” value in assay [1] (Table B) is recorded as “+++ (+++=>500)”.

In the case of `CCC(CC)NC(=O)c1cnc(C#N)c(-c2cc(F)cc(F)c2)c1N1CC[C@](C)(N)C1` [1-76, 4-[(3S)-3-amino-3-methylpyrrolidin-1-yl]-6-cyano-5-(3,5-difluorophenyl)-N-(pentan-3-yl)pyridine-3-carboxamide], the figures for the EC50 in assay [1] (Table A), in assay [1] (Table B) and in assay [2] were less than 10 nM, less than 10 nM and more than 1000 nM, respectively. The “Fold selectivity for SST5 vs SST2” value in assay [1] (Table B) was “+++ (+++=>500)”.

For `Cc1cccc2[nH]c(-c3cncc(C(=O)N4CC[C@H]5CCCC54)c3N3CC[C@](C)(N)C3)nc12` (stereo partly drawn) [2-37, (3S)-1-{3-[(3aR)-octahydrocyclopenta[b]pyrrole-1-carbonyl]-5-(4-methyl-1H-1,3-benzodiazol-2-yl)pyridin-4-yl}-3-methylpyrrolidin-3-amine], the EC50 in assay [1] (Table A) is less than 10 nM; in assay [1] (Table B), less than 10 nM; in assay [2], 100 to 1000 nM. Moreover, the “Fold selectivity for SST5 vs SST2” value in assay [1] (Table B) is reported as “++ (++=100 to 499)”.

Take `C[C@]1(N)CCN(c2c(C(=O)NC(C3CC3)C3CC3)cncc2-c2cc(F)cc(F)c2)C1` [1-51, 4-[(3S)-3-amino-3-methylpyrrolidin-1-yl]-N-(dicyclopropylmethyl)-5-(3,5-difluorophenyl)pyridine-3-carboxamide]: the EC50 in assay [1] (Table A) is less than 10 nM; in assay [1] (Table B), less than 10 nM; in assay [2], 100 to 1000 nM. Also, the “Fold selectivity for SST5 vs SST2” value in assay [1] (Table B) is listed as “+++ (+++=>500)”.

As to `C[C@H](NC(=O)c1cncc(-c2cccc3c2cnn3C)c1N1CC[C@](C)(N)C1)C1CC1` [1-162, 4-[(3S)-3-amino-3-methylpyrrolidin-1-yl]-N-[(1S)-1-cyclopropylethyl]-5-(1-methyl-1H-indazol-4-yl)pyridine-3-carboxamide], the EC50 in assay [1] (Table A) was less than 10 nM; in assay [1] (Table B), less than 10 nM; in assay [2] it was more than 1000 nM. For the same compound, the “Fold selectivity for SST5 vs SST2” value in assay [1] (Table B) was “+++ (+++=>500)”.

Turning to `C[C@H](NC(=O)c1cnc(C#N)c(-c2cc(F)cc(F)c2)c1N1CC[C@](N)(CC(F)F)C1)C1CC1` [1-118, 4-[(3S)-3-amino-3-(2,2-difluoroethyl)pyrrolidin-1-yl]-6-cyano-N-[(1S)-1-cyclopropylethyl]-5-(3,5-difluorophenyl)pyridine-3-carboxamide], the EC50 in assay [1] (Table A) is less than 10 nM; in assay [1] (Table B) it was less than 10 nM; in assay [2] it was more than 1000 nM. Besides, in assay [1] (Table B), the “Fold selectivity for SST5 vs SST2” value was “+++ (+++=>500)”.

For the compound `C[C@]1(N)CCN(c2c(C(=O)NC3CC(F)(F)C3)cncc2-c2cc(F)cc(Cl)c2)C1` [1-35, 4-[(3S)-3-amino-3-methylpyrrolidin-1-yl]-5-(3-chloro-5-fluorophenyl)-N-(3,3-difluorocyclobutyl)pyridine-3-carboxamide], the EC50 in assay [1] (Table A) was less than 10 nM; in assay [1] (Table B), less than 10 nM; in assay [2] it was 100 to 1000 nM. The “Fold selectivity for SST5 vs SST2” value in assay [1] (Table B) is recorded as “++ (++=100 to 499)”.

For the compound `C[C@]1(N)CCN(c2c(C(=O)NC3CCCCC3)cnc(C#N)c2-c2cc(F)cc(F)c2)C1` [1-93, 4-[(3S)-3-amino-3-methylpyrrolidin-1-yl]-6-cyano-N-cyclohexyl-5-(3,5-difluorophenyl)pyridine-3-carboxamide], the EC50 is less than 10 nM in assay [1] (Table A), less than 10 nM in assay [1] (Table B) and 10 to 100 nM in assay [2]. Moreover, the “Fold selectivity for SST5 vs SST2” value in assay [1] (Table B) is “+++ (+++=>500)”.

Regarding `COc1cc(C#N)cc(-c2c(C)ncc(C(=O)N[C@@H](C)C(F)(F)F)c2N2CC[C@](C)(N)C2)c1` [1-275, 4-[(3S)-3-amino-3-methylpyrrolidin-1-yl]-5-(3-cyano-5-methoxyphenyl)-6-methyl-N-[(2S)-1,1,1-trifluoropropan-2-yl]pyridine-3-carboxamide], the EC50 is less than 10 nM in assay [1] (Table A), less than 10 nM in assay [1] (Table B) and 100 to 1000 nM in assay [2]. Moreover, the “Fold selectivity for SST5 vs SST2” value in assay [1] (Table B) was “+++ (+++=>500)”.

With `Cc1ccc(F)c2[nH]c(-c3cncc(C(=O)N[C@@H](C)C(F)(F)F)c3N3CC[C@](C)(N)C3)nc12` [2-30, 4-[(3S)-3-amino-3-methylpyrrolidin-1-yl]-5-(7-fluoro-4-methyl-1H-1,3-benzodiazol-2-yl)-N-[(2S)-1,1,1-trifluoropropan-2-yl]pyridine-3-carboxamide], the EC50 was less than 10 nM in assay [1] (Table A), less than 10 nM in assay [1] (Table B) and 10 to 100 nM in assay [2]. Moreover, in assay [1] (Table B), the “Fold selectivity for SST5 vs SST2” value is recorded as “+ (+=10 to 99)”.

Regarding `Cc1cccc2[nH]c(-c3cncc(C(=O)N4C5CC6CC(C5)CC4C6)c3N3CC[C@](C)(N)C3)nc12` [2-26, (3S)-1-(3-{2-azatricyclo[3.3.1.1^3,7]decane-2-carbonyl}-5-(4-methyl-1H-1,3-benzodiazol-2-yl)pyridin-4-yl)-3-methylpyrrolidin-3-amine], the EC50 is less than 10 nM in assay [1] (Table A), less than 10 nM in assay [1] (Table B) and 100 to 1000 nM in assay [2]. Moreover, the “Fold selectivity for SST5 vs SST2” value in assay [1] (Table B) is reported as “+++ (+++=>500)”.

Turning to `N[C@H]1CCN(c2c(C(=O)NC3CCC(F)(F)CC3)cnc(C(F)(F)F)c2-c2cc(F)cc(F)c2)C1` [1-214, 4-[(3S)-3-aminopyrrolidin-1-yl]-N-(4,4-difluorocyclohexyl)-5-(3,5-difluorophenyl)-6-(trifluoromethyl)pyridine-3-carboxamide], the EC50 in assay [1] (Table A) was less than 10 nM; in assay [1] (Table B), less than 10 nM; in assay [2], more than 1000 nM. Also, in assay [1] (Table B), the “Fold selectivity for SST5 vs SST2” value was “+++ (+++=>500)”.

For `COc1cc(-c2c(C#N)ncc(C(=O)NC3CCCCC3)c2N2CC[C@](C)(N)C2)ccn1` [1-252, 4-[(3S)-3-amino-3-methylpyrrolidin-1-yl]-2-cyano-N-cyclohexyl-2′-methoxy-[3,4′-bipyridine]-5-carboxamide], the EC50 in assay [1] (Table A) is less than 10 nM; in assay [1] (Table B), less than 10 nM; in assay [2], 100 to 1000 nM. The “Fold selectivity for SST5 vs SST2” value in assay [1] (Table B) is “+++ (+++=>500)”.
